US9115101B2 (Genentech, Inc., priority 2012, dated 2015)

Biological target: T1, RORc ligand binding domain (Homo sapiens, UniProt P51449)
T1 construct: host or cells: E. coli
T1 sequence (P51449 269-508 limits assumed): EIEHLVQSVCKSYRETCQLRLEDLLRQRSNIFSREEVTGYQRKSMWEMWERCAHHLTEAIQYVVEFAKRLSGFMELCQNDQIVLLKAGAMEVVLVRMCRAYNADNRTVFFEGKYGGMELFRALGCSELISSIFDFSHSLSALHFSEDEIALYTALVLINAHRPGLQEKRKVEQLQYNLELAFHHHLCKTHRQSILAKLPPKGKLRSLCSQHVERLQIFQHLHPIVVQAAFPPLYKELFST
Test: In Vitro RORc Ligand Binding Assay (25-[3H]hydroxycholesterol radioligand filtration)
Settings: In Vitro RORc Ligand Binding Assay; Table 4; read-out: RORc IC50

Question: How did the IC50 turn out when CS(=O)(=O)N1CCC(Oc2ccc(CN3CCOCC(c4ccccc4)S3(=O)=O)c(F)c2)CC1 (single isomer, unassigned) [Example 56, 5-(2-fluoro-4-((1-(methylsulfonyl)piperidin-4-yl)oxy)benzyl)-3-phenyl-1,4,5-oxathiazepane 4,4-dioxide] was run?
Answer: 94 nM

Question: Which IC50 does the source give for CS(=O)(=O)N1CCC(Oc2ccc(CN3CCOCC(c4ccccc4)S3(=O)=O)c(F)c2)CC1 (single isomer, unassigned) [Example 57, 5-(2-fluoro-4-((1-(methylsulfonyl)piperidin-4-yl)oxy)benzyl)-3-phenyl-1,4,5-oxathiazepane 4,4-dioxide] here?
Answer: 14 nM

Question: How did the IC50 turn out when C[C@H]1CCC(c2ccccc2)S(=O)(=O)N1Cc1ccc(N2CCN(C(=O)C3CC3)CC2)cc1F (single isomer, unassigned) [Example 58] was run?
Answer: 14 nM

Question: With C[C@H]1CCC(c2ccccc2)S(=O)(=O)N1Cc1ccc(N2CCN(C(=O)C3CC3)CC2)cc1F (single isomer, unassigned) [Example 59] as the compound, how does the IC50 read?
Answer: 15 nM

Question: For C[C@H]1CCC(c2ccccc2)S(=O)(=O)N1Cc1ccc(N2CCN(C(=O)C3CC3)CC2)cc1 (single isomer, unassigned) [Example 60], which IC50 is on record?
Answer: 15 nM

Question: With C[C@H]1CCC(c2ccccc2)S(=O)(=O)N1Cc1ccc(N2CCN(C(=O)C3CC3)CC2)cc1 (single isomer, unassigned) [Example 61] as the compound, how does the IC50 read?
Answer: 61 nM

Question: How did the IC50 turn out when CC(=O)N1CCN(c2ccc(CN3[C@@H](C)CC(c4ccccc4)S3(=O)=O)c(F)c2)CC1 (single isomer, unassigned) [Example 63] was run?
Answer: 570 nM

Question: CC(=O)N1CCN(c2ccc(CN3[C@@H](C)CC(c4ccccc4)S3(=O)=O)c(F)c2)CC1 (single isomer, unassigned) [Example 64] was tested. Which IC50 did it give?
Answer: 709 nM

Question: How did the IC50 turn out when CC(=O)N1CCN(c2ccc(CN3[C@H](C)CC(c4ccccc4)S3(=O)=O)c(F)c2)CC1 (single isomer, unassigned) [Example 65] was run?
Answer: 2300 nM

Question: Which IC50 does the source give for CC(=O)N1CCN(c2ccc(CN3[C@H](C)CC(c4ccccc4)S3(=O)=O)c(F)c2)CC1 (single isomer, unassigned) [Example 66] here?
Answer: 310 nM

Question: How did the IC50 turn out when CC(=O)N1CCN(c2ccc(CN3CC(C)CC(c4ccccc4)S3(=O)=O)c(F)c2)CC1 (single isomer, unassigned) [Example 68, 1-{4-[3-Fluoro-4-(4-methyl-1,1-dioxo-6-phenyl-[1,2]thiazinan-2-ylmethyl)-phenyl]-piperazin-1-yl}-ethanone] was run?
Answer: 403 nM

Question: For C[C@H]1CCC(c2ccccc2)S(=O)(=O)N1Cc1ccc(N2CCN(C(=O)CC#N)CC2)cc1F (single isomer, unassigned) [Example 69], which IC50 is on record?
Answer: 103 nM

Question: C[C@H]1CCC(c2ccccc2)S(=O)(=O)N1Cc1ccc(N2CCN(C(=O)CC#N)CC2)cc1F (single isomer, unassigned) [Example 71] was tested. Which IC50 did it give?
Answer: 41 nM

Question: With C[C@H]1CCC(c2ccccc2)S(=O)(=O)N1Cc1ccc(N2CCN(C(=O)CCC#N)CC2)cc1F (single isomer, unassigned) [Example 72] as the compound, how does the IC50 read?
Answer: 64 nM

Question: For C[C@H]1CCC(c2ccccc2)S(=O)(=O)N1Cc1ccc(N2CCN(C(=O)CCC#N)CC2)cc1F (single isomer, unassigned) [Example 73], which IC50 is on record?
Answer: 466 nM

Question: Which IC50 does the source give for COCC(=O)N1CCN(c2ccc(CN3[C@@H](C)CCC(c4ccccc4)S3(=O)=O)c(F)c2)CC1 (single isomer, unassigned) [Example 74] here?
Answer: 29 nM

Question: With COCC(=O)N1CCN(c2ccc(CN3[C@@H](C)CCC(c4ccccc4)S3(=O)=O)c(F)c2)CC1 (single isomer, unassigned) [Example 75] as the compound, how does the IC50 read?
Answer: 167 nM

Question: CO[C@@H](C)C(=O)N1CCN(c2ccc(CN3[C@@H](C)CCC(c4ccccc4)S3(=O)=O)c(F)c2)CC1 (single isomer, unassigned) [Example 76] was tested. Which IC50 did it give?
Answer: 31 nM

Question: Which IC50 does the source give for CO[C@@H](C)C(=O)N1CCN(c2ccc(CN3[C@@H](C)CCC(c4ccccc4)S3(=O)=O)c(F)c2)CC1 (single isomer, unassigned) [Example 77] here?
Answer: 138 nM

Question: For C[C@H](O)C(=O)N1CCN(c2ccc(CN3[C@@H](C)CCC(c4ccccc4)S3(=O)=O)c(F)c2)CC1 (single isomer, unassigned) [Example 78], which IC50 is on record?
Answer: 29 nM

Question: Which IC50 does the source give for C[C@H](O)C(=O)N1CCN(c2ccc(CN3[C@@H](C)CCC(c4ccccc4)S3(=O)=O)c(F)c2)CC1 (single isomer, unassigned) [Example 79] here?
Answer: 82 nM

Question: CC(=O)N1CCCN(c2ccc(CN3[C@@H](C)CCC(c4ccccc4)S3(=O)=O)c(F)c2)CC1 (single isomer, unassigned) [Example 80] was tested. Which IC50 did it give?
Answer: 14 nM

Question: CC(=O)N1CCCN(c2ccc(CN3[C@@H](C)CCC(c4ccccc4)S3(=O)=O)c(F)c2)CC1 (single isomer, unassigned) [Example 81] was tested. Which IC50 did it give?
Answer: 118 nM

Question: Which IC50 does the source give for C[C@H]1CCC(c2ccccc2)S(=O)(=O)N1Cc1ccc(N2CCCN(C(=O)CC#N)CC2)cc1F (single isomer, unassigned) [Example 82] here?
Answer: 22 nM

Question: C[C@H]1CCC(c2ccccc2)S(=O)(=O)N1Cc1ccc(N2CCCN(C(=O)CC#N)CC2)cc1F (single isomer, unassigned) [Example 83] was tested. Which IC50 did it give?
Answer: 213 nM

Question: For C[C@H]1CCC(c2ccccc2)S(=O)(=O)N1Cc1ccc(N2CC3(CCOCC3)C2)cc1F (single isomer, unassigned) [Example 84], which IC50 is on record?
Answer: 23 nM

Question: With C[C@H]1CCC(c2ccccc2)S(=O)(=O)N1Cc1ccc(N2CC3(CCOCC3)C2)cc1F (single isomer, unassigned) [Example 85] as the compound, how does the IC50 read?
Answer: 89 nM

Question: For C[C@H]1CCC(c2ccccc2)S(=O)(=O)N1Cc1ccc(N2CCC(C#N)CC2)cc1F (single isomer, unassigned) [Example 86], which IC50 is on record?
Answer: 15 nM

Question: C[C@H]1CCC(c2ccccc2)S(=O)(=O)N1Cc1ccc(N2CCC(C#N)CC2)cc1F (single isomer, unassigned) [Example 87] was tested. Which IC50 did it give?
Answer: 200 nM

Question: For C[C@H]1CCC(c2ccccc2)S(=O)(=O)N1Cc1ccc(N2CCCNCC2)cc1F (single isomer, unassigned) [Example 88], which IC50 is on record?
Answer: 819 nM

Question: Which IC50 does the source give for C[C@H]1CCC(c2ccccc2)S(=O)(=O)N1Cc1ccc(N2CCCNCC2)cc1F (single isomer, unassigned) [Example 89] here?
Answer: 1250 nM

Question: Which IC50 does the source give for CO[C@@H](C)C(=O)N1CCCN(c2ccc(CN3[C@@H](C)CCC(c4ccccc4)S3(=O)=O)c(F)c2)CC1 (single isomer, unassigned) [Example 90] here?
Answer: 76 nM

Question: With C[C@H](O)C(=O)N1CCCN(c2ccc(CN3[C@@H](C)CCC(c4ccccc4)S3(=O)=O)c(F)c2)CC1 (single isomer, unassigned) [Example 91] as the compound, how does the IC50 read?
Answer: 254 nM

Question: Which IC50 does the source give for CO[C@@H](C)C(=O)N1CCCN(c2ccc(CN3[C@@H](C)CCC(c4ccccc4)S3(=O)=O)c(F)c2)CC1 (single isomer, unassigned) [Example 92] here?
Answer: 154 nM

Question: For C[C@H](O)C(=O)N1CCCN(c2ccc(CN3[C@@H](C)CCC(c4ccccc4)S3(=O)=O)c(F)c2)CC1 (single isomer, unassigned) [Example 93], which IC50 is on record?
Answer: 49 nM

Question: C[C@H]1CCC(c2ccccc2)S(=O)(=O)N1Cc1ccc(N2CC3(CCOC3)C2)cc1F (single isomer, unassigned) [Example 94] was tested. Which IC50 did it give?
Answer: 54 nM

Question: How did the IC50 turn out when C[C@H]1CCC(c2ccccc2)S(=O)(=O)N1Cc1ccc(N2CC3(CCOC3)C2)cc1F (single isomer, unassigned) [Example 95] was run?
Answer: 93 nM

Question: Which IC50 does the source give for C[C@H]1CCC(c2ccccc2)S(=O)(=O)N1Cc1ccc(N2CCNCC2)cc1F (single isomer, unassigned) [Example 96] here?
Answer: 4480 nM

Question: Which IC50 does the source give for C[C@H]1CCC(c2ccccc2)S(=O)(=O)N1Cc1ccc(N[C@H]2CC[C@@H](C#N)CC2)cc1F (single isomer, unassigned) [Example 97] here?
Answer: 40 nM

Question: C[C@H]1CCC(c2ccccc2)S(=O)(=O)N1Cc1ccc(N2CCC3(CC2)COC3)cc1F (single isomer, unassigned) [Example 99] was tested. Which IC50 did it give?
Answer: 44 nM

Question: C[C@H]1CCC(c2ccccc2)S(=O)(=O)N1Cc1ccc(N2CCC3(CC2)COC3)cc1F (single isomer, unassigned) [Example 100] was tested. Which IC50 did it give?
Answer: 12 nM

Question: For C[C@H]1CCC(c2ccccc2)S(=O)(=O)N1Cc1ccc(N2CCC3(COC3)C2)cc1F (single isomer, unassigned) [Example 102], which IC50 is on record?
Answer: 25 nM

Question: With C[C@H]1CCC(c2ccccc2)S(=O)(=O)N1Cc1ccc(N2CCC(S(=O)(=O)N(C)C)CC2)cc1F (single isomer, unassigned) [Example 103] as the compound, how does the IC50 read?
Answer: 146 nM

Question: How did the IC50 turn out when C[C@H]1CCC(c2ccccc2)S(=O)(=O)N1Cc1ccc(N2CCC(CS(C)(=O)=O)CC2)cc1F (single isomer, unassigned) [Example 104] was run?
Answer: 54 nM

Question: For C[C@H]1CCC(c2ccccc2)S(=O)(=O)N1Cc1ccc(N2CCC(CS(C)(=O)=O)CC2)cc1F (single isomer, unassigned) [Example 105], which IC50 is on record?
Answer: 18 nM

Question: With C[C@H]1CCC(c2ccccc2)S(=O)(=O)N1Cc1ccc(N2CC(C3CCOCC3)C2)cc1F (single isomer, unassigned) [Example 106] as the compound, how does the IC50 read?
Answer: 20 nM

Question: Which IC50 does the source give for C[C@H]1CCC(c2ccccc2)S(=O)(=O)N1Cc1ccc(N2CCC3(COC3)C2)cc1F (single isomer, unassigned) [Example 107] here?
Answer: 20 nM

Question: Which IC50 does the source give for C[C@H]1CCC(c2ccccc2)S(=O)(=O)N1Cc1ccc(N2CC(C3CCOCC3)C2)cc1F (single isomer, unassigned) [Example 108] here?
Answer: 33 nM

Question: C[C@H]1CCC(c2ccccc2)S(=O)(=O)N1Cc1ccc(N2CCC(S(=O)(=O)N(C)C)CC2)cc1F (single isomer, unassigned) [Example 109] was tested. Which IC50 did it give?
Answer: 34 nM

Question: With C[C@H]1CCC(c2ccccc2)S(=O)(=O)N1Cc1ccc(N[C@H]2CC[C@@H](C#N)CC2)cc1F (single isomer, unassigned) [Example 110] as the compound, how does the IC50 read?
Answer: 35 nM

Question: For C[C@H]1CCC(c2ccccc2)S(=O)(=O)N1Cc1ccc(N[C@H]2CC[C@H](C#N)CC2)cc1F (single isomer, unassigned) [Example 111], which IC50 is on record?
Answer: 49 nM

Question: Which IC50 does the source give for C[C@H]1CCC(c2ccccc2)S(=O)(=O)N1Cc1ccc(N[C@H]2CC[C@H](C#N)CC2)cc1F (single isomer, unassigned) [Example 112] here?
Answer: 30 nM
